The test system of data set [1] is Plasmodium falciparum. Kind of data set: Antiplasmodial activity against Plasmodium falciparum K1 assessed as inhibition of parasite growth by microdilution analysis. It counts as functional, organism-based. A general note: Broth dilution looks for growth in wells or tubes with falling amounts of substance.
In data set [2] the test system is Plasmodium falciparum. Kind of data set: Antiplasmodial activity against Plasmodium falciparum NF54 assessed as inhibition of parasite growth by microdilution analysis. It counts as functional, organism-based.
The test system of data set [3] is Plasmodium falciparum. Description: Antiplasmodial activity against Plasmodium falciparum 3D7. The format is functional, organism-based.
Data set [4] has as its target human dihydroorotate dehydrogenase (DHODH), mitochondrial (Homo sapiens, UniProt Q02127). Kind of data set: in vitro.
Description: Inhibition of human DHODH
In data set [5] the test system is Plasmodium falciparum. Kind of data set: Antiplasmodial activity against Plasmodium falciparum NF54 incubated for 48 hrs by lactate dehydrogenase assay. The format is functional, organism-based. As to conditions: NF54, 48 h.
Data set [6] has as its system Plasmodium falciparum. Kind of data set: Antimalarial activity against Plasmodium falciparum FcB1. The format is functional, organism-based.

Sequence of human dihydroorotate dehydrogenase (DHODH), mitochondrial (Q02127 whole entry): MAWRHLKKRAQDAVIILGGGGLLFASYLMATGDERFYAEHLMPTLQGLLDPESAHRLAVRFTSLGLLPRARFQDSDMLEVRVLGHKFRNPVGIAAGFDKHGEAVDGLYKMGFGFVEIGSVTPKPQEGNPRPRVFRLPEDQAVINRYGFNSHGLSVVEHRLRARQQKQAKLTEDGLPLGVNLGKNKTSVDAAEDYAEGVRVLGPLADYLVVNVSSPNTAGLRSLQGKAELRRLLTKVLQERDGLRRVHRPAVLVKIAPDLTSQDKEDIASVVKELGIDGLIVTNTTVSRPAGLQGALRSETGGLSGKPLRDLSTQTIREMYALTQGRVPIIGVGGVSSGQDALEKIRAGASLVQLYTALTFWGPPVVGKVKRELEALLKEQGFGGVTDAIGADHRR

For the compound `CCN(CC)CCCC(C)Cc1ccnc2cc(Cl)ccc12` (stereo not drawn), the half-maximal inhibitory concentration (IC50) in the data set on Plasmodium falciparum [1] and with Plasmodium falciparum [2] was 3 µM in each case.
In turn, `CC[C@H]1OC(=O)[C@H](C)[C@@H](O[C@H]2C[C@@](C)(OC)[C@@H](O)[C@H](C)O2)[C@H](C)[C@@H](O[C@@H]2O[C@H](C)C[C@H](N(C)C)[C@H]2O)[C@](C)(O)C[C@@H](C)CN(C)[C@H](C)[C@@H](O)[C@]1(C)O` [AZITHROMYCIN] returned an IC50 in the data set on Plasmodium falciparum [3] of 2.65 µM.
Regarding `CCOC(=O)c1[nH]c(C)c(Cc2ccc(C(F)(F)F)nc2)c1C`, the concentration for half-maximal inhibition (IC50) in data set [4] is > 100 µM. The concentration for a half-maximal effect (EC50) in the data set on Plasmodium falciparum [3] came out at 0.009 µM.
Turning to `Cc1c(Cc2cnc(C(F)(F)F)nc2)c[nH]c1C(=O)NC1CC1`, the IC50 in data set [4] was > 100 µM.
Regarding `CCOC(=O)c1[nH]c(C)c(Cc2ccc(OCC)cc2)c1C`, the IC50 in data set [4] is > 100 µM. The EC50 with Plasmodium falciparum [3] amounted to 0.23 µM.
As to `CC(=O)N1CCN(c2nc3cc(Cl)ccc3n2Cc2ccccc2)CC1`, the 50% inhibitory concentration (IC50) in the data set on Plasmodium falciparum [5] was > 1 µM.
As to `CCOC(=O)c1[nH]c(C)c(Cc2ccc(C(F)(F)F)cc2)c1C`, in data set [4], the IC50 is > 100 µM. The same compound gave a concentration giving a half-maximal response (EC50) in the data set on Plasmodium falciparum [3] of 0.061 µM.
As for `O=C1CN(c2nc3cc(Cl)ccc3n2Cc2ccccc2)CCN1`, the half-inhibitory concentration (IC50) in the data set with Plasmodium falciparum [5] is > 1 µM.
On to `CCN(CC)CCCC(C)Nc1cccc2cc(Cl)ccc12` (stereo not drawn), for which the concentration for half-maximal inhibition (IC50) in the data set with Plasmodium falciparum [1] and in the data set with Plasmodium falciparum [2] was 3 µM throughout.
For `C[C@H]1[C@H](C)CC[C@]2(C(=O)O)CC[C@]3(C)C(=CC[C@@H]4[C@@]5(C)CC[C@H](O)C(C)(C)[C@@H]5CC[C@]43C)[C@H]12` [URSOLIC ACID], in the data set on Plasmodium falciparum [6], 52.9 µM corresponded to half-maximal inhibition (IC50).
Take `Cc1[nH]c(C(=O)NC2CC2)c(C)c1Cc1ccc(C(F)(F)F)nc1`: in data set [4], the IC50 was > 100 µM.
`C[C@H]1[C@H](C)CC[C@]2(C(=O)NCCCN3CCN(CCCNCc4ccc(O)cc4)CC3)CC[C@]3(C)C(=CC[C@@H]4[C@@]5(C)CC[C@H](O)C(C)(C)[C@@H]5CC[C@]43C)[C@H]12` (single isomer, unassigned) gave an IC50 in the data set with Plasmodium falciparum [6] of 0.08 µM.
Compound `Cc1ccc(S(=O)(=O)N2CCN(c3nc4cc(Cl)ccc4n3Cc3ccccc3)CC2)cc1` showed an IC50 with Plasmodium falciparum [5] of 5.26 µM.

The term IC50 denotes the concentration at which inhibition is half-maximal. Usually EC50 stands for the concentration that produces a half-maximal response. Read a low EC50 as greater potency.

The values above are taken from ChEMBL document CHEMBL5331119, “Basic Nitrogen (BaN) Is a Key Property of Antimalarial Chemical Space” (J Med Chem, 2023).
